The values below come from patent US10189854B2, “Substituted pyrimidine compounds” (Grünenthal GmbH, priority 2014, dated 2019).

human PDE4B1, sequence (Q07343 whole entry): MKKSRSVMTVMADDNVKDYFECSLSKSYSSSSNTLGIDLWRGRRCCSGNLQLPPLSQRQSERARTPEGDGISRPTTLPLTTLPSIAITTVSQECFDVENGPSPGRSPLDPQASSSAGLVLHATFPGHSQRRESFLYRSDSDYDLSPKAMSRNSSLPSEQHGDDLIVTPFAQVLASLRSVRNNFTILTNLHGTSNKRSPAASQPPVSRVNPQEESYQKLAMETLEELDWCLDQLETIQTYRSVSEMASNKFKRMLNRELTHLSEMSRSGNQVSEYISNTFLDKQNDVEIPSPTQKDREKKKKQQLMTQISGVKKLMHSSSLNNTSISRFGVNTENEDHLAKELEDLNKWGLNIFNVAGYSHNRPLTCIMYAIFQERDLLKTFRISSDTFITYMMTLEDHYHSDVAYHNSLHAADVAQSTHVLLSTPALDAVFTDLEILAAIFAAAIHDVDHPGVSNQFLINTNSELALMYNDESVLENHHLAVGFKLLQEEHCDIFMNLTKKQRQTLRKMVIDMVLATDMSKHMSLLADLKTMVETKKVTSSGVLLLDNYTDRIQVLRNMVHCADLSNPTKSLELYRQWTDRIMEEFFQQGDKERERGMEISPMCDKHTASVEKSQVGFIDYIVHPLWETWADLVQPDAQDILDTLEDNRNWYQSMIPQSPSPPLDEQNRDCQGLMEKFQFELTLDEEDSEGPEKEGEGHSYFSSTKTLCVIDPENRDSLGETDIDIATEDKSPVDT

The assay addresses human PDE4B1 (Homo sapiens (Human), UniProt Q07343). Kind of assay: cAMP HTRF assay to determine the activity of hPDE4B1. The conditions noted are these: IC50 inhibition of PDE4B; human recombinant PDE4B1, cAMP HTRF assay. The class given is biochemical. The method in brief: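 Recombinant human PDE4B1 expressed in Sf9 cells (4.8 U) was incubated with 40 nM cAMP for 30 min at room temperature in Tris buffer, pH 7.8, with MgCl2, DTT and Tween 20. HTRF detection of remaining cAMP followed, with 1 mM IBMX stop, read 60 min later as the 665/620 nm ratio. Results are % inhibition versus control.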
(Time-resolved FRET reads energy transfer from a long-lived donor to a nearby acceptor.)
As for `O=C(c1ccc2c(c1)N(c1ncc(-c3cncc(F)c3)cn1)CC21CC1)N1CCOCC1` [Compound 157, [1-[5-(5-Fluoro-pyridin-3-yl)-pyrimidin-2-yl]-spiro[1,2-dihydro-indole-3,1′-cyclopropane]-6-yl]-morpholin-4-yl-methanone], the IC50 is under 0.1 µM.

For `N[C@@H]1CCN(C(=O)c2ccc3c(c2)N(c2ncc(-c4ccccc4)cn2)CC32CC2)C1` [Compound 108, [(3R)-3-Amino-pyrrolidin-1-yl]-[1-(5-phenyl-pyrimidin-2-yl)-spiro[1,2-dihydro-indole-3,1′-cyclopropane]-6-yl]methanone], the 50% inhibitory concentration (IC50) was under 0.1 µM.

As to `CN(CCO)C(=O)c1ccc2c(c1)N(c1ncc(-c3ccccc3F)cn1)CC21CC1` [Compound 95, 1-[5-(2-Fluorophenyl)-pyrimidin-2-yl]-N-(2-hydroxy-ethyl)-N-methyl-spiro[1,2-dihydro-indole-3,1′-cyclopropane]-6-carboxylic acid amide], the IC50 is under 0.1 µM.

As for `O=C1CN(C(=O)c2ccc3c(c2)N(c2ncc(-c4cccnc4F)cn2)CC32CC2)CCN1` [Compound 176, 4-[1-[5-(2-Fluoro-pyridin-3-yl)-pyrimidin-2-yl]-spiro[1,2-dihydro-indole-3,1′-cyclopropane]-6-carbonyl]-piperazin-2-one], the IC50 was under 0.1 µM.

In the case of `Cc1cc(-c2cnc(N3CC4(CC4)c4ccc(C(=O)N5CCOCC5)cc43)nc2)ccn1` [Compound 159, [1-[5-(2-Methyl-pyridin-4-yl)-pyrimidin-2-yl]-spiro[1,2-dihydro-indole-3,1′-cyclopropane]-6-yl]-morpholin-4-yl-methanone], the IC50 was under 0.1 µM.

In the case of `C[C@@H]1CN(C(=O)c2ccc3c(c2)N(c2ncc(-c4ccccc4F)cn2)CC32CC2)C[C@H](C)O1` [Compound 104, [(2R,6S)-2,6-dimethyl-morpholin-4-yl]-[1-[5-(2-fluorophenyl)-pyrimidin-2-yl]-spiro[1,2-dihydro-indole-3,1′-cyclopropane]-6-yl]-methanone], the IC50 was under 0.1 µM.

With `O=C(c1ccc2c(c1)N(c1ncc(-c3ccc(F)cc3)cn1)CC21CC1)N1CCOCC1` [Compound 43, [1-[5-(4-Fluorophenyl)-pyrimidin-2-yl]-spiro[1,2-dihydro-indole-3,1′-cyclopropane]-6-yl]-morpholin-4-yl-methanone], the IC50 was under 0.1 µM.

In the case of `O=C(c1ccc2c(c1)N(c1ncc(-c3cc(OC(F)(F)F)ccc3F)cn1)CC21CC1)N1CCOCC1` [Compound 67, [1-[5-(2-Fluoro-5-(trifluoromethyloxy)-phenyl]-pyrimidin-2-yl]-spiro[1,2-dihydro-indole-3,1′-cyclopropane]-6-yl]-morpholin-4-yl-methanone], the IC50 fell in the range of 0.1 to 1 µM.

As to `Cc1n[nH]c(C)c1-c1cnc(N2CC3(CC3)c3ccc(C(=O)N4CCOCC4)cc32)nc1` [Compound 144, [1-[5-(3,5-Dimethyl-1H-pyraozl-4-yl)-pyrimidin-2-yl]-spiro[1,2-di-hydro-indole-3,1′-cyclopropane]-6-yl]-morpholin-4-yl-methanone], the IC50 was under 0.1 µM.

For the compound `NC(=O)c1ccc(-c2cnc(N3CC4(CC4)c4ccc(C(=O)N5CCNCC5)cc43)nc2)c(F)c1` [Compound 119, 3-Fluoro-4-[2-[6-(piperazine-1-carbonyl)-spiro[1,2-dihydro-indole-3,1′-cyclopropane]-1-yl]-pyrimidin-5-yl]-benzamide], the IC50 was under 0.1 µM.

Regarding `O=C(c1ccc2c(c1)N(c1ncc(-c3cccnc3F)cn1)CC21CC1)N1CCOCC1` [Compound 145, [1-[5-(2-Fluoro-pyridin-3-yl)-pyrimidin-2-yl]-spiro[1,2-dihydro-indole-3,1′-cyclopropane]-6-yl]-morpholin-4-yl-methanone], the IC50 is under 0.1 µM.

On to `N#Cc1cccc(-c2cnc(N3CC4(CC4)c4ccc(C(=O)N5CCOCC5)cc43)nc2)c1` [Compound 56, 3-[2-[6-(Morpholine-4-carbonyl)-spiro[1,2-dihydro-indole-3,1′-cyclopropane]-1-yl]-pyrimidin-5-yl]-benzonitrile], for which the IC50 is under 0.1 µM.

Regarding `COc1ccc(F)c(-c2cnc(N3CC4(CC4)c4ccc(C(=O)N5CCNCC5)cc43)nc2)c1` [Compound 73, [1-[5-(2-Fluoro-5-methoxy-phenyl)-pyrimidin-2-yl]-spiro[1,2-dihydro-indole-3,1′-cyclopropane]-6-yl]-piperazin-1-yl-methanone], the IC50 was under 0.1 µM.

Take `CC1(C)CN(c2ncc(-c3ccccc3F)cn2)c2cc(C(=O)N3CCOCC3)ccc21` [Compound 9, [1-[5-(2-Fluorophenyl)-pyrimidin-2-yl]-3,3-dimethyl-1,2-dihydro-indol-6-yl]-morpholin-4-yl-methanone]: the IC50 fell in the range of 0.1 to 1 µM.

As to `O=C(c1ccc2c(c1)N(c1ncc(-c3c(F)cncc3F)cn1)CC21CC1)N1CCOCC1` [Compound 166, [1-[5-(3,5-Difluoro-pyridin-4-yl)-pyrimidin-2-yl]-spiro[1,2-dihydro-indole-3,1′-cyclopropane]-6-yl]-morpholin-4-yl-methanone], the IC50 is under 0.1 µM.

Consider `Cc1ccnc(-c2cnc(N3CC4(CC4)c4ccc(C(=O)N(C)CCO)cc43)nc2)c1` [Compound 210, N-(2-Hydroxy-ethyl)-N-methyl-1-[5-(4-methyl-pyridin-2-yl)-pyrimidin-2-yl]-spiro[1,2-dihydro-indole-3,1′-cyclopropane]-6-carboxylic acid amide], for which the IC50 is under 0.1 µM.

Take “1-[5-(3-Cyano-phenyl)-pyrimidin-2-yl]-N-(2-hydroxy-ethyl)-N-methyl-spiro[1,2-dihydro-indole-3,1′-cyclo-propane]-6-carboxylic acid amide [Compound 193]”: the IC50 was under 0.1 µM.

Take `CS(=O)(=O)c1ccccc1-c1cnc(N2CC3(CC3)c3ccc(C(=O)N4CCOCC4)cc32)nc1` [Compound 28, [1-[5-(2-Methylsulfonyl-phenyl)-pyrimidin-2-yl]-spiro[1,2-dihydro-indole-3,1′-cyclopropane]-6-yl]-morpholin-4-yl-methanone]: the IC50 was 0.1 to 1 µM.

`O=C(c1ccc2c(c1)N(c1ncc(-c3ccccc3F)cn1)CC21CC1)N1CCCCC1CO` (stereo not shown) [Compound 97, [1-[5-(2-Fluorophenyl)-pyrimidin-2-yl]-spiro[1,2-dihydro-indole-3,1′-cyclopropane]-6-yl]-[2-(hydroxymethyl)-piperidin-1-yl]-methanone]: the IC50 lay within 1 to 10 µM.

Take `O=C(c1ccc2c(c1)N(c1ncc(-c3ccccc3F)cn1)CC21CC1)N1CC2(CCNC2)C1` [Compound 111]: the IC50 fell in the range of 1 to 10 µM.

Consider `COc1ccc(C(N)=O)c(-c2cnc(N3CC4(CC4)c4ccc(C(=O)N5CCNCC5)cc43)nc2)c1` [Compound 122, 4-Methoxy-2-[2-[6-(piperazine-1-carbonyl)-spiro[1,2-dihydro-indole-3,1′-cyclopropane]-1-yl]-pyrimidin-5-yl]-benzamide], for which the IC50 lay in the range of 1 to 10 µM.

As for “[1-[5-(6-Chloro-pyrimidin-4-yl)-pyrimidin-2-yl]-spiro[1,2-dihydro-indole-3,1′-cyclopropane]-6-yl]-morpholin-4-yl-methanone [Compound 206]”, the IC50 was under 0.1 µM.

For “[1-[5-(4-Amino-pyridin-2-yl)-pyrimidin-2-yl]-spiro[1,2-dihydro-indole-3,1′-cyclopropane]-6-yl]-morpholin-4-yl-methanone [Compound 181]”, the IC50 was under 0.1 µM.

For the compound `CN(C)[C@@H]1CCN(C(=O)c2ccc3c(c2)N(c2ncc(-c4ccccc4F)cn2)CC32CC2)C1` [Compound 110, [(3R)-3-Dimethylamino-pyrrolidin-1-yl]-[1-[5-(2-fluorophenyl)-pyrimidin-2-yl]-spiro[1,2-dihydro-indole-3,1′-cyclopropane]-6-yl]-methanone], the IC50 lay in the range of 0.1 to 1 µM.

Regarding `CS(=O)(=O)c1ccc(F)c(-c2cnc(N3CC4(CC4)c4ccc(C(=O)N5CCOCC5)cc43)nc2)c1` [Compound 42, [1-[5-(2-Fluoro-5-methylsulfonyl-phenyl)-pyrimidin-2-yl]-spiro[1,2-dihydro-indole-3,1′-cyclopropane]-6-yl]-morpholin-4-yl-methanone], the IC50 is under 0.1 µM.

Take `O=C1CN(C(=O)c2ccc3c(c2)N(c2ncc(-c4ccccc4)cn2)CC32CC2)CCN1` [Compound 55, 4-[1-(5-Phenyl-pyrimidin-2-yl)-spiro[1,2-dihydro-indole-3,1′-cyclopropane]-6-carbonyl]-piperazin-2-one]: the IC50 was under 0.1 µM.

As to `N#Cc1ccsc1-c1cnc(N2CC3(CC3)c3ccc(C(=O)N4CCOCC4)cc32)nc1` [Compound 153, 2-[2-[6-(Morpholine-4-carbonyl)-spiro[1,2-dihydro-indole-3,1′-cyclopropane]-1-yl]-pyrimidin-5-yl]-thiophene-3-carbonitrile], the half-maximal inhibitory concentration (IC50) is under 0.1 µM.

Consider `N#Cc1ccc(F)c(-c2cnc(N3CC4(CC4)c4ccc(C(=O)N5CCOCC5)cc43)nc2)c1` [Compound 22, 4-Fluoro-3-[2-[6-(morpholine-4-carbonyl)-spiro[1,2-dihydro-indole-3,1′-cyclopropane]-1-yl]-pyrimidin-5-yl]-benzonitrile], for which the IC50 was under 0.1 µM.

What is called IC50 is the concentration that gives 50% inhibition.
